21 compounds from US11453647B2, “Benzimidazole derivatives as adenosine receptor antagonists” (Merck Patent GmbH, priority 2017, dated 2022) can be followed below.

What all share (type): cell-based
One assay deals with T1, human A1 receptor (Homo sapiens, UniProt P30542).
T1 construct: expressed in transfected cells; host or cells: CHO
T1 sequence (P30542 1-326): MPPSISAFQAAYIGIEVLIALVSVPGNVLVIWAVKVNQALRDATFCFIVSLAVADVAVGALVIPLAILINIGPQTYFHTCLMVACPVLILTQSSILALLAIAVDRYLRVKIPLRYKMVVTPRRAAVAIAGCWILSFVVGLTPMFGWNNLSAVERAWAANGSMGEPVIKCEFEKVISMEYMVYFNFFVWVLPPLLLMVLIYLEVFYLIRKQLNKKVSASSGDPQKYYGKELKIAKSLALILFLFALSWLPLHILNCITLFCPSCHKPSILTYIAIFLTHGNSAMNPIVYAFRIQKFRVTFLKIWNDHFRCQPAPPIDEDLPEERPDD
In words: functional cAMP (HTRF) assay, recombinant CHO cells expressing human A1 receptor, forskolin, agonist CPA. How it is done:
(§1) The functional activities of human A2A, A2B, A1 and A3 receptors were determined by quantification of cAMP, being the second messenger for adenosine receptors.
(§2) For human A1 and A3 receptors, recombinant CHO cells, expressing either A1 or A3-receptor, were used. As both receptors couple to Gi proteins, the assay protocol was adapted:
(§3) Cells were seeded into 384-well plates, forskolin, test compounds and agonists (CPA for A1- and IB-MECA for A3-receptor) were added. After 30 min incubation, HTRF reagents (cAMP dynamic 2, Cis Bio) were added and the cellular cAMP levels were determined using the ENVISION (Perkin Elmer) plate reader. Obtained raw data were normalized against the inhibitor control and the neural control (DMSO) and the normalized data were fitted using GeneData software.

Another assay has as its target T2, human A2A receptor (Homo sapiens, UniProt P29274).
T2 construct: expressed in transfected cells; host or cells: HEK293
In words: functional cAMP (HTRF) assay, recombinant HEK293 cells expressing human A2A receptor, agonist NECA.

In a further assay the target is T3, human A3 receptor (Homo sapiens, UniProt P0DMS8).
T3 construct: expressed in transfected cells; host or cells: CHO
T3 sequence (P0DMS8 1-318): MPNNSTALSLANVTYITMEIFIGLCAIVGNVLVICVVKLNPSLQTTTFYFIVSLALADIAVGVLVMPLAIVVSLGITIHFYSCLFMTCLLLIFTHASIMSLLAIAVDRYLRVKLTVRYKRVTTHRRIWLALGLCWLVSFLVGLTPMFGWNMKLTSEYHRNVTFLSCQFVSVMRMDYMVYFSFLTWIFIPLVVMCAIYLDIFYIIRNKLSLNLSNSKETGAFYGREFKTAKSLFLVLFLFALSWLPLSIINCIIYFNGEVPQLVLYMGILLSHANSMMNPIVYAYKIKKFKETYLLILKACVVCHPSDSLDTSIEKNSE
In words: functional cAMP (HTRF) assay, recombinant CHO cells expressing human A3 receptor, forskolin, agonist IB-MECA. How it is done:
as §1, §2, §3

A further assay addresses T4, A2B receptors (Homo sapiens, UniProt P29275).
T4 sequence (P29275 1-332): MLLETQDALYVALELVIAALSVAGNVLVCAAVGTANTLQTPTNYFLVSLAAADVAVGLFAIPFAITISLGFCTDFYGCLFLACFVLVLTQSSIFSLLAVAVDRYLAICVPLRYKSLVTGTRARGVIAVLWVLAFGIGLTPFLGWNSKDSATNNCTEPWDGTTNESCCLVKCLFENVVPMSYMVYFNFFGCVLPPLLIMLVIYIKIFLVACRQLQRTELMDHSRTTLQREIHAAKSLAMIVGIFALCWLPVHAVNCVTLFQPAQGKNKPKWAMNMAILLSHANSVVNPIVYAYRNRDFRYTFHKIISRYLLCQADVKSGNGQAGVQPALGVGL
In words: functional cAMP (HTRF) assay, recombinant HEK293 cells expressing human A2B receptor, agonist NECA. Further details: expressed in transfected cells; host or cells: HEK293.

T2 sequence (P29274 whole entry): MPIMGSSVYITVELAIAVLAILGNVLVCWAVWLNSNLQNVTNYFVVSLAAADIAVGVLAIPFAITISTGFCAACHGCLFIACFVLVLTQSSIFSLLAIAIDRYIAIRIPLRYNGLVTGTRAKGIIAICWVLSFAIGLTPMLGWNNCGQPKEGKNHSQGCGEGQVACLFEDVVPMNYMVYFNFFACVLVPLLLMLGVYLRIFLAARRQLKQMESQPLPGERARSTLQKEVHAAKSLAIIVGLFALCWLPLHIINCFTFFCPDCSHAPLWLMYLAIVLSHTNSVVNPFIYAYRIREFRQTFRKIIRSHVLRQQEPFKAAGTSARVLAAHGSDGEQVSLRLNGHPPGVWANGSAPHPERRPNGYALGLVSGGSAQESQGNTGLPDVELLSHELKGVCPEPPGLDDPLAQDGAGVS

With `COc1ccc(N2CCCCCC2)c2nc(NC(=O)N3CCC(C)(O)CC3)[nH]c12` [compound 216, N-[4-(azepan-1-yl)-7-methoxy-1H-1,3-benzodiazol-2-yl]-4-hydroxy-4-methylpiperidine-1-carboxamide], the IC50 on human A1 receptor was > 1 µM; on human A2A receptor it was < 0.1 µM; at human A3 receptor it was > 1 µM.

As for `COc1ccc(C2CCOCC2)c2nc(NC(=O)C3(C#N)CC3)[nH]c12` [compound 226, 1-cyano-N-[7-methoxy-4-(oxan-4-yl)-1H-1,3-benzodiazol-2-yl]cyclopropane-1-carboxamide], the IC50 on human A1 receptor is > 1 µM; at human A2A receptor it was < 0.1 µM; at human A3 receptor, > 1 µM.

With `COc1ccc(-c2cnn(C(F)F)c2)c2nc(NC(=O)N3CCC(C)(O)CC3)[nH]c12` [compound 229, N-{7-[1-(difluoromethyl)-1H-pyrazol-4-yl]-4-methoxy-1H-1,3-benzodiazol-2-yl}-4-hydroxy-4-methylpiperidine-1-carboxamide], the IC50 at human A1 receptor was > 1 µM; on human A2A receptor, < 0.1 µM; on human A3 receptor, > 1 µM.

In the case of `COCCOCCn1cc(-c2ccc(OC)c3nc(NC(=O)N4CCC(C)(O)CC4)[nH]c23)cn1` [compound 230, 4-hydroxy-N-(4-methoxy-7-{1-[2-(2-methoxyethoxy)ethyl]-1H-pyrazol-4-yl}-1H-1,3-benzodiazol-2-yl)-4-methylpiperidine-1-carboxamide], the figures for the 50% inhibitory concentration (IC50) on human A1 receptor, at human A2A receptor and on human A3 receptor were > 1 µM, < 0.1 µM and > 1 µM, respectively.

Regarding `COc1ccc(-c2cnn(-c3ccccn3)c2)c2[nH]c(NC(=O)N3CCC(C)(O)CC3)nc12` [compound 231, 4-hydroxy-N-{4-methoxy-7-[1-(pyridin-2-yl)-1H-pyrazol-4-yl]-1H-1,3-benzodiazol-2-yl}-4-methylpiperidine-1-carboxamide], the IC50 on human A1 receptor is < 1 µM; at human A2A receptor, < 0.1 µM; on human A3 receptor, < 1 µM.

Consider `CCCC1(c2ccc(OC)c3[nH]c(NC(=O)c4cnn(C)c4)nc23)CC1` [compound 232, N-[7-methoxy-4-(1-propylcyclopropyl)-1H-1,3-benzodiazol-2-yl]-1-methyl-1H-pyrazole-4-carboxamide], for which the IC50 at human A1 receptor is > 1 µM; on human A2A receptor it was < 0.1 µM; at human A3 receptor, < 1 µM.

On to `CCCC(CC)c1ccc(OC)c2[nH]c(NC(=O)c3cnn(C)c3)nc12` (stereo not drawn) [compound 233, N-[4-(hexan-3-yl)-7-methoxy-1H-1,3-benzodiazol-2-yl]-1-methyl-1H-pyrazole-4-carboxamide], for which the IC50 is > 1 µM on human A1 receptor, < 0.1 µM on human A2A receptor and < 0.01 µM on human A3 receptor.

As to `COc1ccc(C2CCOCC2)c2nc(NC(=O)c3cnc(C)o3)[nH]c12` [compound 234, N-[7-methoxy-4-(oxan-4-yl)-1H-1,3-benzodiazol-2-yl]-2-methyl-1,3-oxazole-5-carboxamide], the figures for the IC50 on human A1 receptor, on human A2A receptor and on human A3 receptor were > 1 µM, < 0.01 µM and < 1 µM, respectively.

On to `COc1ccc(-c2cnn(C3CCOC3)c2)c2nc(NC(=O)N3CCC(C)(O)CC3)[nH]c12` (stereo not drawn) [compound 241, 4-hydroxy-N-{4-methoxy-7-[1-(oxolan-3-yl)-1H-pyrazol-4-yl]-1H-1,3-benzodiazol-2-yl}-4-methylpiperidine-1-carboxamide], for which the IC50 was > 1 µM on human A1 receptor, < 0.1 µM at human A2A receptor and > 1 µM at human A3 receptor.

In the case of `COc1ccc(-c2cnn(C3CN(C(=O)OC(C)(C)C)C3)c2)c2[nH]c(NC(=O)N3CCC(C)(O)CC3)nc12` [compound 245, tert-butyl 3-(4-{2-[(4-hydroxy-4-methylpiperidine-1-carbonyl)amino]-4-methoxy-1H-1,3-benzodiazol-7-yl}-1H-pyrazol-1-yl)azetidine-1-carboxylate], the IC50 at human A1 receptor is > 1 µM; at human A2A receptor it was < 0.1 µM; on human A3 receptor, > 1 µM.

With `COc1ccc(-c2ccccc2)c2nc(NC(=O)c3cncs3)[nH]c12` [compound 256, N-(7-methoxy-4-phenyl-1H-1,3-benzodiazol-2-yl)-1,3-thiazole-5-carboxamide], the IC50 on human A1 receptor was < 1 µM; on human A2A receptor, < 0.01 µM; on A2B receptors it was < 0.01 µM.

Turning to `COc1ccc(-c2ccccc2)c2nc(NC(=O)c3cnc(C)s3)[nH]c12` [compound 257, N-(7-methoxy-4-phenyl-1H-1,3-benzodiazol-2-yl)-2-methyl-1,3-thiazole-5-carboxamide], the IC50 on human A1 receptor was < 1 µM; on human A2A receptor, < 0.01 µM; at A2B receptors it was < 0.01 µM.

As for `COc1ccc(-c2ccccc2)c2nc(NC(=O)c3cnc(N)s3)[nH]c12` [compound 258, 2-amino-N-(7-methoxy-4-phenyl-1H-1,3-benzodiazol-2-yl)-1,3-thiazole-5-carboxamide], the figures for the IC50 on human A1 receptor, on human A2A receptor and at A2B receptors were < 1 µM, < 0.01 µM and < 0.01 µM, respectively.

Regarding `COc1ccc(-c2cccnc2)c2nc(NC(=O)c3cnn(C)c3)[nH]c12` [compound 260, N-[7-methoxy-4-(pyridin-3-yl)-1H-1,3-benzodiazol-2-yl]-1-methyl-1H-pyrazole-4-carboxamide], the IC50 at human A1 receptor is < 1 µM; at human A2A receptor it was < 0.01 µM; on A2B receptors it was < 0.01 µM.

For the compound `COc1ccc(-c2ccncc2)c2[nH]c(NC(=O)c3c[nH]cn3)nc12` [compound 266, N-[4-methoxy-7-(pyridin-4-yl)-1H-1,3-benzodiazol-2-yl]-1H-imidazole-4-carboxamide], the IC50 on human A1 receptor is > 1 µM; on human A2A receptor, < 0.1 µM; at A2B receptors it was < 0.1 µM.

Regarding `COCCOc1cccc(-c2ccc(OC)c3nc(NC(=O)c4c[nH]cn4)[nH]c23)c1` [compound 267, N-{4-methoxy-7-[3-(2-methoxyethoxy)phenyl]-1H-1,3-benzodiazol-2-yl}-1H-imidazole-4-carboxamide], the IC50 was < 1 µM at human A1 receptor, < 0.01 µM at human A2A receptor and < 0.01 µM at A2B receptors.

With `COc1ccc(-c2ccnc3[nH]ccc23)c2[nH]c(NC(=O)N3CCC(C)(O)CC3)nc12` [compound 270, 4-hydroxy-N-(7-methoxy-4-{1H-pyrrolo[2,3-b]pyridin-4-yl}-1H-1,3-benzodiazol-2-yl)-4-methylpiperidine-1-carboxamide], the IC50 was > 1 µM at human A1 receptor, < 0.1 µM at human A2A receptor and > 1 µM at human A3 receptor.

Consider `COc1ccc(-c2ccc3cc[nH]c3c2)c2nc(NC(=O)N3CCC(C)(O)CC3)[nH]c12` [compound 272, 4-hydroxy-N-[4-(1H-indol-6-yl)-7-methoxy-1H-1,3-benzodiazol-2-yl]-4-methylpiperidine-1-carboxamide], for which the IC50 on human A1 receptor was > 1 µM; at human A2A receptor it was < 0.1 µM; on A2B receptors it was < 0.1 µM.

In the case of `COc1ccc(-c2ccc3c(cnn3C)c2)c2nc(NC(=O)N3CCC(C)(O)CC3)[nH]c12` [compound 273, 4-hydroxy-N-[7-methoxy-4-(1-methyl-1H-indazol-5-yl)-1H-1,3-benzodiazol-2-yl]-4-methylpiperidine-1-carboxamide], the IC50 on human A1 receptor was > 1 µM; on human A2A receptor, < 0.1 µM; at human A3 receptor it was > 1 µM.

As to `COc1ccc(-c2ccccc2)c2nc(NC(=O)c3cnc4n3CCCC4)[nH]c12` [compound 291, N-(7-methoxy-4-phenyl-1H-1,3-benzodiazol-2-yl)-5H,6H,7H,8H-imidazo[1,2-a]pyridine-3-carboxamide], the IC50 is < 1 µM on human A1 receptor, < 0.1 µM on human A2A receptor and < 0.1 µM on A2B receptors.

In the case of `COc1ccc(-c2cccc3c2CCN3)c2nc(NC(=O)N3CCC(C)(O)CC3)[nH]c12` [compound 292, N-[4-(2,3-dihydro-1H-indol-4-yl)-7-methoxy-1H-1,3-benzodiazol-2-yl]-4-hydroxy-4-methylpiperidine-1-carboxamide], the IC50 on human A1 receptor was < 0.01 µM; at human A2A receptor, < 0.1 µM; at human A3 receptor it was > 1 µM.
